According to patent US11773085B2 (Foghorn Therapeutics Inc., priority 2018, dated 2023):
pIC50: −log10 of the molar value.

Tests used:
[1] = target: Nanoluciferase-BRD9 fusion protein (3×FLAG-NLuc-BRD9) (Homo sapiens (Human), UniProt Q9H8M2); test: SYO1 BRD9 NanoLuc degradation assay; type: cell-based; conditions: SYO-1 cells expressing 3×FLAG-NLuc-BRD9, 6 hours, 1 μM top dose; read-out: SYO1 BRD9-NanoLuc degradation IC50
Description: A stable SYO-1 cell line expressing 3×FLAG-NLuc-BRD9 was generated. On day 0 cells were seeded in 30 μL media into each well of 384-well cell culture plates. The seeding density was 8000 cells/well. […] Subsequently plates were incubated for 6 hours in a standard tissue culture incubator and equilibrated at room temperature for 15 minutes. Nanoluciferase activity was measured by adding 15 μL of freshly prepared Nano-Glo Luciferase Assay Reagent (Promega N1130), shaking the plates for 10 minutes and reading the bioluminescence using an EnVision reader.
The Inhibition % was calculated using the following formula: % Inhibition=100×(LumHC−LumSample)/(LumHC−LumLC). DMSO treated cells are employed as High Control (HC) and 1 μM of a known BRD9 degrader standard treated cells are employed as Low Control (LC).

BRD9 bromodomain = BRD9 bromodomain (Homo sapiens (Human), UniProt Q9H8M2); test: BRD9 bromodomain TR-FRET competition binding assay; conditions: 3 nM Flag-BRD9, 3.75 nM biotinylated ligand, 90 minutes at room temperature
Description: Cleaved His tag was removed by purification.
A mixture of biotinylated-ligand and SureLight™ Allophycocyanin-Streptavidin (APC-SA, PerkinElmer AD0201) in 50 mM HEPES (pH 7.4), 50 mM NaCl, 1 mM TCEP (pH 7), 0.01% (v/v) Tween-20, 0.01% (w/v) bovine serum albumin was added to a white 384-well PerkinElmer Proxiplate Plus plate. DMSO or 3-fold serially diluted compounds were then added to the Proxiplate followed by addition of Flag-BRD9. After a 10 minute incubation at room temperature, Eu-W1024 anti-FLAG (PerkinElmer, AD0273) was added.

| DC50 [1] [nM] | pIC50 (BRD9 bromodomain) | Compound |
| --- | --- | --- |
| > 1000 | > 8.00 | COc1cc(-c2cn(C)c(=O)c3cnccc23)cc(OC)c1CN(C)C(=O)CCOc1cccc2c1C(=O)N(C1CCC(=O)NC1=O)C2=O (stereo not drawn) [Compound D14, N-[[2,6-dimethoxy-4-(2-methyl-1-oxo-1,2-dihydro-2,7-naphthyridin-4-yl)phenyl]methyl]-3-[[2-(2,6-dioxopiperidin-3-yl)-1,3-dioxo-2,3-dihydro-1H-isoindol-4-yl]oxy]-N-methylpropanamide] |
| < 10 | > 8.00 | COc1cc(-c2cn(C)c(=O)c3cnccc23)cc(OC)c1CN(C)C(=O)CCCCOc1cccc2c1C(=O)N(C1CCC(=O)NC1=O)C2=O (stereo not drawn) [Compound D12, N-[[2,6-dimethoxy-4-(2-methyl-1-oxo-1,2-dihydro-2,7-naphthyridin-4-yl)phenyl]methyl]-5-[[2-(2,6-dioxopiperidin-3-yl)-1,3-dioxo-2,3-dihydro-1H-isoindol-4-yl]oxy]-N-methylpentanamide] |
| < 10 | > 8.00 | COc1cc(-c2cn(C)c(=O)c3cnccc23)cc(OC)c1CN(C)CC(=O)NCCCCCCCCCC(=O)N[C@H](C(=O)N1C[C@H](O)C[C@H]1C(=O)NCc1ccc(-c2scnc2C)cc1)C(C)(C)C (stereo in doubt) [Compound D18, (2S,4R)-1-[(2S)-2-[10-[2-([[2,6-dimethoxy-4-(2-methyl-1-oxo-2,7-naphthyridin-4-yl)phenyl]methyl](methyl)amino)acetamido]decanamido]-3,3-dimethylbutanoyl]-4-hydroxy-N-[[4-(4-methyl-1,3-thiazol-5-yl)phenyl]methyl]pyrrolidine-2-carboxamide] |
| < 10 | 7.00 to 8.00 | COc1cc(NCC(=O)NCCCCCCCCNc2cccc3c2C(=O)N(C2CCC(=O)NC2=O)C3=O)cc(-c2cn(C)c(=O)c3cnccc23)c1 (stereo not drawn) [Compound D8, N-(8-[[2-(2,6-dioxopiperidin-3-yl)-1,3-dioxo-2,3-dihydro-1H-isoindol-4-yl]amino]octyl)-2-[[3-methoxy-5-(2-methyl-1-oxo-1,2-dihydro-2,7-naphthyridin-4-yl)phenyl]amino]acetamide formic acid] |
| < 10 | 7.00 to 8.00 | COc1cc(OCC(=O)NCCCCCCCCNc2cccc3c2C(=O)N(C2CCC(=O)NC2=O)C3=O)cc(-c2cn(C)c(=O)c3cnccc23)c1 (stereo not drawn) [Compound D6, N-(8-((2-(2,6-dioxopiperidin-3-yl)-1,3-dioxoisoindolin-4-yl)amino)octyl)-2-(3-methoxy-5-(2-methyl-1-oxo-1,2-dihydro-2,7-naphthyridin-4-yl)phenoxy)acetamide] |
| > 1000 | 7.00 to 8.00 | COc1cc(-c2cn(C)c(=O)c3cnccc23)cc(OC)c1CN(C)CCCCCCCC(=O)N[C@H](C(=O)N1C[C@H](O)C[C@H]1C(=O)NCc1ccc(-c2scnc2C)cc1)C(C)(C)C [Compound D19, (2S,4R)-1-[(2S)-2-[8-([[2,6-dimethoxy-4-(2-methyl-1-oxo-2,7-naphthyridin-4-yl)phenyl]methyl](methyl)amino)octanamido]-3,3-dimethylbutanoyl]-4-hydroxy-N-[[4-(4-methyl-1,3-thiazol-5-yl)phenyl]methyl]pyrrolidine-2-carboxamide] |
| 10 to 100 | 7.00 to 8.00 | COc1cc(-c2cn(C)c(=O)c3cnccc23)cc(OC)c1CN(C)CC(=O)N(C)CCOCCOCCNc1cccc2c1C(=O)N(C1CCC(=O)NC1=O)C2=O (stereo not drawn) [Compound D13, 2-((2,6-dimethoxy-4-(2-methyl-1-oxo-1,2-dihydro-2,7-naphthyridin-4-yl)benzyl)(methyl)amino)-N-(2-(2-(2-((2-(2,6-dioxopiperidin-3-yl)-1,3-dioxoisoindolin-4-yl)amino)ethoxy)ethoxy)ethyl)-N-methylacetamide] |
| < 10 | 7.00 to 8.00 | COc1cc(-c2cn(C)c(=O)c3cnccc23)cc(OCC(=O)NCCCCCCCCNc2cccc3c2C(=O)N(C2CCC(=O)NC2=O)C3=O)c1OC (stereo not drawn) [Compound D10, 2-(2,3-dimethoxy-5-(2-methyl-1-oxo-1,2-dihydro-2,7-naphthyridin-4-yl)phenoxy)-N-(8-((2-(2,6-dioxopiperidin-3-yl)-1,3-dioxoisoindolin-4-yl)amino)octyl)acetamide] |
| < 10 | 7.00 to 8.00 | COc1cc(-c2cn(C)c(=O)c3cnccc23)cc(OC)c1CN(C)CC(=O)NCCCCCCCCNc1cccc2c1C(=O)N(C1CCC(=O)NC1=O)C2=O (stereo not drawn) [Compound D2, 2-([[2,6-dimethoxy-4-(2-methyl-1-oxo-1,2-dihydro-2,7-naphthyridin-4-yl)phenyl]methyl](methyl)amino)-N-(8-[[2-(2,6-dioxopiperidin-3-yl)-1,3-dioxo-2,3-dihydro-1H-isoindol-4-yl]amino]octyl)acetamide formic acid] |
| < 10 | > 8.00 | COc1cc(-c2cn(C)c(=O)c3cnccc23)cc(OC)c1CN(C)CC(=O)NCCCCCCCCNC(=O)COc1cccc2c1C(=O)N(C1CCC(=O)NC1=O)C2=O (stereo not drawn) [Compound D5, N-[8-[2-([[2,6-dimethoxy-4-(2-methyl-1-oxo-1,2-dihydro-2,7-naphthyridin-4-yl)phenyl]methyl](methyl)amino)acetamido]octyl]-2-[[2-(2,6-dioxopiperidin-3-yl)-1,3-dioxo-2,3-dihydro-1H-isoindol-4-yl]oxy]acetamide] |
| > 1000 |  | COc1cc(-c2cn(C)c(=O)c3cnccc23)cc(OC)c1CN(C)CCc1cccc2c1C(=O)N(C1CCC(=O)NC1=O)C2=O (stereo not drawn) [Compound D17, 4-[2-([[2,6-dimethoxy-4-(2-methyl-1-oxo-2,7-naphthyridin-4-yl)phenyl]methyl](methyl)amino)ethyl]-2-(2,6-dioxopiperidin-3-yl)isoindole-1,3-dione] |
| < 10 |  | COc1cc(-c2cn(C)c(=O)c3cnccc23)cc(OC)c1CN(C)C(=O)CCCCCOc1cccc2c1C(=O)N(C1CCC(=O)NC1=O)C2=O (stereo not drawn) [Compound D4, N-[[2,6-dimethoxy-4-(2-methyl-1-oxo-1,2-dihydro-2,7-naphthyridin-4-yl)phenyl]methyl]-6-[[2-(2,6-dioxopiperidin-3-yl)-1,3-dioxo-2,3-dihydro-1H-isoindol-4-yl]oxy]-N-methylhexanamide] |
|  | 6.00 to 7.00 | CC(=O)c1cc(-c2cccc3nccn23)c2cc(N3CCOCC3)ccn12 [Compound B16, 1-(1-[imidazo[1,2-a]pyridin-5-yl]-7-(morpholin-4-yl)indolizin-3-yl)ethan-1-one] |
|  | 7.00 to 8.00 | COc1cc(-c2cn(C)c(=O)c3cnccc23)cc(F)c1CN(C)C [Compound B67, 4-(4-((dimethylamino)methyl)-3-fluoro-5-methoxyphenyl)-2-methyl-2,7-naphthyridin-1(2H)-one] |
|  | 7.00 to 8.00 | COc1cc(-c2cn(C)c(=O)c3cc(-c4nc5ccncc5[nH]4)ccc23)cc(OC)c1CN(C)C [Compound B64, 4-[4-[(dimethylamino)methyl]-3,5-dimethoxyphenyl]-7-[1H-imidazo[4,5-c]pyridin-2-yl]-2-methylisoquinolin-1-one] |
|  | < 6.00 | COc1cc(-c2cc(NC(=O)N(C)C)c3nncn3c2)cc(OC)c1CN(C)C [Compound B58, 1-(6-[4-[(dimethylamino)methyl]-3,5-dimethoxyphenyl]-[1,2,4]triazolo[4,3-a]pyridin-8-yl)-3,3-dimethylurea] |
|  | < 6.00 | CCC(=O)Nc1c(C)c(-c2cc(OC)c(CN(C)C)c(OC)c2)cn(C)c1=O [Compound B31, N-(5-[4-[(dimethylamino)methyl]-3,5-dimethoxyphenyl]-1,4-dimethyl-2-oxo-1,2-dihydropyridin-3-yl)propanamide] |
|  | 7.00 to 8.00 | COc1cc(-c2cn(C)c(=O)c3ccc(-c4nc5cnccc5[nH]4)cc23)cc(OC)c1CN(C)C [Compound B65, 4-(4-((dimethylamino)methyl)-3,5-dimethoxyphenyl)-6-(1H-imidazo[4,5-c]pyridin-2-yl)-2-methylisoquinolin-1(2H)-one] |
|  | < 6.00 | CCOC(=O)Nc1c(C)c(-c2cc(OC)c(CN(C)C)c(OC)c2)cn(C)c1=O [Compound B42, ethyl N-(5-[4-[(dimethylamino)methyl]-3,5-dimethoxyphenyl]-1,4-dimethyl-2-oxo-1,2-dihydropyridin-3-yl)carbamate] |
|  | 7.00 to 8.00 | COc1cc(-c2cc(NC(C)=O)c3nnc(C)n3c2)cc(OC)c1CN(C)C [Compound B60, N-(6-[4-[(dimethylamino)methyl]-3,5-dimethoxyphenyl]-3-methyl-[1,2,4]triazolo[4,3-a]pyridin-8-yl)acetamide] |
|  | 7.00 to 8.00 | CNC(=O)c1ccc2c(=O)n(C)cc(-c3cc(OC)c(CN(C)C)c(OC)c3)c2c1 [Compound B63, 4-(4-((dimethylamino)methyl)-3,5-dimethoxyphenyl)-N,2-dimethyl-1-oxo-12-dihydroisoquinoline-6-carboxamide] |
|  | 7.00 to 8.00 | COc1cc(-c2cn(C)c(=O)c3cnccc23)cc(OC)c1CN1CC(C(=O)O)C1 [Compound B21, 1-[[2,6-dimethoxy-4-(2-methyl-1-oxo-1,2-dihydro-2,7-naphthyridin-4-yl)phenyl]methyl]azetidine-3-carboxylic acid] |
|  | 7.00 to 8.00 | C/C=C/Cn1cc(-c2ccc(CNC)c(C#N)c2)c2cc(C)[nH]c2c1=O [Compound B15] |
